Results on 13 molecules are retold here after PubChem BioAssay (NCI).

Some test systems named below: NCI-H460 lung; MOLT-4 leukemia; NCI/ADR-RES ovarian; HT29 colon; OVCAR-5 ovarian; CAKI-1 renal; COLO 205 colon; MDA-N; HS 578T breast; K-562 leukemia; SNB-19 CNS.
What all share (assay): NCI anticancer screen, dose series, 48 h

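Cultured in 96-well plates, cells were exposed to test compound for 48 hours across five concentrations. Definition used: TGI = concentration required for complete inhibition of growth.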

For the molecule `CC(=O)OCC1OC(Sc2nc(-c3ccccc3)c(C#N)c(=O)n2C2OC(COC(C)=O)C(OC(C)=O)C(OC(C)=O)C2OC(C)=O)C(OC(C)=O)C(OC(C)=O)C1OC(C)=O` (stereo unspecified), the TGI in the assay on NCI-H460 lung, in the assay with MOLT-4 leukemia, with NCI/ADR-RES ovarian, in the assay with HT29 colon, in the assay with OVCAR-5 ovarian and with CAKI-1 renal was greater than 100 µM each time. In addition, the TGI in the assay on COLO 205 colon, in the assay on MDA-N, with HS 578T breast and in the assay on K-562 leukemia was greater than 100 µM each time.
On to `C[C@@H](NC(=O)Nc1cccc(C(=O)Nc2cc(C(C)(C)C)ccc2C(=O)O)n1)c1ccccc1`, for which the TGI in the assay on NCI-H460 lung, in the assay with MOLT-4 leukemia, in the assay with NCI/ADR-RES ovarian, in the assay with HT29 colon, with OVCAR-5 ovarian and with CAKI-1 renal was greater than 100 µM each time. Besides, the TGI is 60.6 µM in the assay with COLO 205 colon; greater than 100 µM with SNB-19 CNS; greater than 100 µM in the assay with MDA-N; greater than 100 µM in the assay with HS 578T breast; greater than 100 µM in the assay on K-562 leukemia.
For the molecule `COc1ccc2c(c1)SC1=Nc3sc4cc(OC)ccc4[n+]3CN12`, the TGI in the assay with NCI-H460 lung is 72.8 µM; with MOLT-4 leukemia it was 25.1 µM; in the assay with NCI/ADR-RES ovarian, greater than 100 µM; in the assay on HT29 colon, 56.3 µM; in the assay on OVCAR-5 ovarian, greater than 100 µM; with CAKI-1 renal, greater than 100 µM. Also, the TGI in the assay with COLO 205 colon was 11.6 µM; in the assay on SNB-19 CNS, greater than 100 µM; in the assay on MDA-N, greater than 100 µM; in the assay with HS 578T breast, greater than 100 µM; in the assay with K-562 leukemia, greater than 100 µM.
Take `CN(C)CCC(C#N)(c1ccccc1)c1ccccc1`: the TGI in the assay on NCI-H460 lung, in the assay with NCI/ADR-RES ovarian, in the assay with HT29 colon, in the assay on OVCAR-5 ovarian, with CAKI-1 renal and with COLO 205 colon was greater than 100 µM each time. The TGI is greater than 100 µM in the assay with SNB-19 CNS, greater than 100 µM in the assay on MDA-N, greater than 100 µM in the assay on HS 578T breast and 22.6 µM in the assay with K-562 leukemia.
For the molecule `COCc1nc(C#N)c(N)o1`, the TGI in the assay with NCI-H460 lung, in the assay on MOLT-4 leukemia, in the assay on NCI/ADR-RES ovarian, in the assay on HT29 colon, in the assay on CAKI-1 renal and in the assay on COLO 205 colon was greater than 10 µM throughout. The TGI in the assay on SNB-19 CNS, in the assay with MDA-N, in the assay with HS 578T breast and with K-562 leukemia was greater than 10 µM in each case.
Turning to `COc1cc(OC)cc(Oc2nc3ccc(C(F)(F)F)cc3nc2-c2ccccc2)c1`, the TGI in the assay on NCI-H460 lung, in the assay with MOLT-4 leukemia, in the assay with NCI/ADR-RES ovarian, with HT29 colon, in the assay on OVCAR-5 ovarian and with CAKI-1 renal was greater than 100 µM throughout. Also, the TGI in the assay on COLO 205 colon, in the assay with MDA-N, in the assay with HS 578T breast and in the assay on K-562 leukemia was greater than 100 µM throughout.
As for `O=[N+]([O-])c1ccc(-c2ccc([C@H]3CC(c4cc(F)c(Cl)cc4Cl)=NN3)o2)cc1`, the TGI in the assay with NCI-H460 lung was greater than 100 µM; in the assay with MOLT-4 leukemia, 41 µM; in the assay with NCI/ADR-RES ovarian it was 90.2 µM; with HT29 colon, greater than 100 µM; with OVCAR-5 ovarian, greater than 100 µM; with CAKI-1 renal, greater than 100 µM. The TGI with SNB-19 CNS, in the assay with MDA-N, with HS 578T breast and with K-562 leukemia was greater than 100 µM throughout.
`CCOC(=O)c1c2ccccc2n2c(=O)n(-c3ccccc3)nnc12`: the TGI in the assay with NCI-H460 lung, in the assay on NCI/ADR-RES ovarian, in the assay on OVCAR-5 ovarian, in the assay on CAKI-1 renal, in the assay on COLO 205 colon and with SNB-19 CNS was greater than 100 µM throughout. Moreover, the values for the TGI with MDA-N, with HS 578T breast and with K-562 leukemia were greater than 100 µM, greater than 100 µM and 47.3 µM, respectively.
As for `CC(C(=O)NCNC(=O)c1ccccc1)C(=O)NCc1ccccc1` (stereo unspecified), the TGI with NCI-H460 lung, in the assay with MOLT-4 leukemia, in the assay with NCI/ADR-RES ovarian, with HT29 colon, in the assay on OVCAR-5 ovarian and in the assay with CAKI-1 renal was greater than 100 µM in each case. In addition, the TGI with COLO 205 colon, in the assay on SNB-19 CNS, with MDA-N and with HS 578T breast was greater than 100 µM throughout.
As for `NS(=O)(=O)c1ccc(NCc2cccc3c(=O)c4ccc(Cl)cc4oc23)cc1`, the TGI with MOLT-4 leukemia is greater than 100 µM; in the assay on NCI/ADR-RES ovarian, greater than 100 µM; in the assay with HT29 colon, greater than 100 µM; in the assay with OVCAR-5 ovarian, greater than 100 µM; in the assay with CAKI-1 renal, greater than 85.7 µM; in the assay with COLO 205 colon, greater than 100 µM. Moreover, the TGI was greater than 61.8 µM in the assay on SNB-19 CNS, greater than 80.2 µM in the assay on MDA-N, 82.3 µM in the assay on HS 578T breast and greater than 100 µM with K-562 leukemia.
Consider `COC(=O)[C@@H](N1C(=O)c2ccccc2C1=O)C1(C)CC(Cl)=NO1` (stereo partly specified), for which the TGI was greater than 100 µM in the assay with NCI-H460 lung; 68.2 µM in the assay on NCI/ADR-RES ovarian; greater than 100 µM in the assay on HT29 colon; greater than 100 µM with OVCAR-5 ovarian; 83.7 µM in the assay with CAKI-1 renal; greater than 100 µM in the assay with COLO 205 colon. Moreover, the TGI is 56.2 µM in the assay with SNB-19 CNS, greater than 100 µM in the assay with MDA-N, 75.3 µM in the assay with HS 578T breast and greater than 100 µM in the assay on K-562 leukemia.
As for `Cc1cccc2c(=O)c3cccc(CC(=O)O)c3oc12`, the TGI in the assay on NCI-H460 lung, in the assay with MOLT-4 leukemia, in the assay on NCI/ADR-RES ovarian, in the assay on HT29 colon, in the assay with CAKI-1 renal and in the assay with COLO 205 colon was greater than 100 µM each time. Besides, the TGI with SNB-19 CNS, in the assay on MDA-N, with HS 578T breast and with K-562 leukemia was greater than 100 µM each time.
`CCO/C=N\C1=C(C#N)SC2=N/C(=C\c3ccco3)C(=O)N21`: the TGI in the assay with MOLT-4 leukemia, with NCI/ADR-RES ovarian, in the assay with HT29 colon, in the assay on OVCAR-5 ovarian, in the assay on CAKI-1 renal and with COLO 205 colon was greater than 100 µM each time. The TGI in the assay on SNB-19 CNS, with MDA-N, with HS 578T breast and with K-562 leukemia was greater than 100 µM each time.
